Test results from a melting point compilation (Tetko et al.; mined from patent text by program, amines drawn as free bases though some values may be those of a salt).

| Structure (SMILES) | melting point |
| --- | --- |
| CC1CC(Nc2nnc(-c3cccc(Oc4cccc(C(F)(F)F)c4)c3)s2)CC(C)(C)C1 (stereo not given) | 101 to 102 °C |
| COC(=O)CCCC#Cc1cc(F)cc(C(F)(F)F)c1 | 44 to 45 °C |
| CCOC(=O)C(CC(F)(F)CC(C)C1CCC2C3CC=C4CC(OC5CCCCO5)CCC4(C)C3CCC12C)C(=O)OCC (stereo not given) | 79 to 80 °C |
| CNc1nc(Br)cn2cc(C(N)=O)nc12 | 312 °C |
| CCCCC1(CC)OCc2c1cnc(C)c2OCC(=O)O (stereo not given) | 193 °C |
| Cc1c(C(=O)OC(C)(C)C)nn(-c2ccc(Cl)cc2Cl)c1-c1ccc(Cl)cc1 | 112 °C |
| CC(C)(C)c1ccc(C=C(CCCCCC2CCCCC2)COCc2ccccc2)cc1NC(=O)CC1c2ccccc2Oc2ccccc21 | 110 °C |
| CCCCCCCCC[C@@H](CC(N)=O)N(CCC)C(=O)[C@H](CCCC(=O)O)NC(=O)c1cn(Cc2ccccc2)c2ccccc12 | 155 to 160 °C |
| CCCn1c(=O)c(C(=O)OCC)c(O)c2ccc(C)nc21 | 128 to 130 °C |
| COc1ccc(-n2c(-c3ccc(-c4ccc(-c5nc6c7ccccc7c7ccccc7c6n5-c5ccc(OC)cc5)cc4)cc3)nc3c4ccccc4c4ccccc4c32)cc1 | 403 °C |
| O=Cc1c(F)cccc1Sc1ccc(F)cc1 | 94 to 97 °C |
| CN1CC2(COc3cc4c(cc32)OCO4)c2c(Br)cccc21 (stereo not given) | 155 to 157 °C |
| O=C(O)C1=Cc2cc(Cl)cc(-c3ccco3)c2OC1C(F)(F)F (stereo not given) | 172 to 173 °C |
| CC(C)(C)c1cc(-c2ccccc2NC(=O)CCCC(=O)O)cc(C(C)(C)C)c1O | 132 to 134 °C |
| O=C1NC(=O)c2c1ccc(N1C(=O)C=CC1=O)c2N1C(=O)C=CC1=O | 180 to 200 °C |
| C=CCN(C)c1ccc(C(C#N)=C(C#N)C#N)cc1 | 155 °C |
| Cc1cccc(C2(C(N)=S)CCCS2)n1 (stereo not given) | 171 °C |
| O=C1C(c2ccccc2)=CC2CCCCCC12 (stereo not given) | 218 °C |
| CSc1nnc(-c2nn(C)c(C)c2S(N)(=O)=O)o1 | 156 to 158 °C |
| COc1ccc(-c2ccoc2)c2c1c(CCN(C)C)cn2C | 80 to 81 °C |

| Structure (SMILES) | melting point |
| --- | --- |
| COC(=O)CN(NC(N)=O)c1cc(C)cc(C)c1 | 139 to 141 °C |
| CC(=O)OCC(=O)C1(O)CCC2C3CCC4=CC(=O)CCC4(C)C3CCC21C (stereo not given) | 236 °C |
| COc1c(C)cc(Cc2ccc3c(c2)OCO3)cc1C | 49 °C |
| CCCCCCCCCCCC1N(C(C)=O)c2ccccc2-c2c([N+](=O)[O-])cnn21 (stereo not given) | 83 to 85 °C |
| CC(C)CCNC(Nc1cc(C(F)(F)F)cc(C(F)(F)F)c1)=C(C#N)C(=O)OC(C)(C)C | 128 to 129 °C |
| COc1c(O)c(OC)c2c(=O)cc(-c3ccc(O)c(O)c3)oc2c1OC | 279 to 281 °C |
| O=C(O)c1cccc2nnsc12 | 239 to 240 °C |
| CC(=O)Nc1ccc([C@@H]2CO2)cn1 | 96 to 98 °C |
| CCCCCCCCCCCCCCCCCCNC(=O)OCC(CN)COC (stereo not given) | 84 to 85 °C |
| CC1CC(=O)NN=C1c1ccc2c(c1)Oc1c[nH]nc1N2 (stereo not given) | 304 to 306 °C |
| OCCNc1ccnc2cc(C(F)(F)F)ccc12 | 181 to 182 °C |
| CCCc1c(OCCCOc2ccc([N+](=O)[O-])cc2)ccc(C(C)=O)c1O | 98 °C |
| CC1Cc2cc(C3C(=O)Oc4c3cc(C(C)(C)C)cc4C(C)(C)C)ccc2O1 (stereo not given) | 136 to 152 °C |
| CCCCCCCCCCOC1CCC(=O)N1 (stereo not given) | 44 to 46 °C |
| CC(n1cncn1)C(O)(Cn1cncn1)c1ccc(F)cc1F (stereo not given) | 115 to 116 °C |
| COc1ccc2ncc(F)cc2c1 | 51 to 53 °C |
| CSc1ccc2c(c1)Cc1ccc(C(=O)O)cc1O2 | 266 to 267 °C |
| CN(C)C1CCN(Cc2ccc3c(c2)Cc2c(-c4cccs4)n[nH]c2-3)CC1 | 96 to 98 °C |
| C1=C(c2c[nH]c3ccccc23)CCN(CCc2csc3ccccc23)C1 | 195 to 198 °C |
| CCCc1c(OCc2cccc(CC(=O)O)c2)ccc(C(C)=O)c1O | 156 to 158 °C |

Second part, the compound after the results:

| melting point | Structure (SMILES) |
| --- | --- |
| 106 to 107 °C | Cc1nn(-c2ccc(C(F)(F)F)cn2)cc1COc1ccc(OC(C)(C)C(=O)O)cc1 |
| 192 to 194 °C | CCOC(=O)Cn1c(-c2ccc([N+](=O)[O-])cc2)nc2cccnc21 |
| 225 to 227 °C | COc1cccc(COc2cccc3c2CN(C2CCC(=O)NC2=O)C3=O)c1 (stereo not given) |
| 115 to 120 °C | CC(=O)Oc1c(C2CCN(CCCCNC(=O)c3ccc(-c4ccc(C#N)cc4)cc3)CC2)ccc2ccccc12 |
| 119 to 121 °C | CN(Cc1ccccc1)C(=O)C[C@@H](Cc1ccccc1)C(=O)O |
| 110 to 112 °C | Cc1cccnc1OC(=O)Oc1ncccc1C |
| 156 to 162 °C | CN(C)c1cccc(Oc2ccccc2N2CCN(CCCc3c[nH]c4ccccc34)CC2)c1 |
| 219 to 220 °C | COc1ccnn2c(-c3ccnc(N)c3)c(-c3ccc(F)c(C)c3)nc12 |
| 87 to 88 °C | COc1ccc(CN2C(=O)C3CC(c4ccccc4)(C3)C2=O)cc1 |
| 124 to 130 °C | CC(C)C(OC(=O)NC(C)(Cc1ccccc1)C(=O)NC(CO)c1ccccc1)c1ccccc1 (stereo not given) |
| 236 °C | N#CC1=C(c2ccncc2)Nc2n[nH]cc2C1c1cccc2nonc12 (stereo not given) |
| 153 to 154 °C | Cc1ccc(-c2ccccc2C(=O)NCc2ccc([N+](=O)[O-])cc2)cc1 |
| 112 to 113 °C | COc1ccc(COC(=O)ON=C(C#N)c2ccccc2)cc1 |
| 278 to 279 °C | N#Cc1cccc2[nH]c(C(=O)O)cc(=O)c12 |
| 168 to 169 °C | CCN(c1ccc(OC)cc1)S(=O)(=O)c1cccc(C(=O)Nc2ccc(C#N)cc2)c1 |
| 124 to 126 °C | O=C(CN1CCN(c2ncccn2)CC1)c1ccc(-c2cccc(C(F)(F)F)c2)nc1 |
| 227 to 228 °C | COC(=O)c1ccc(-c2nc(-c3ccc(Cl)cc3)no2)c(N)c1 |
| 78 to 80 °C | CCCOCc1cc2c(-c3ccc(OCc4ccccc4)cc3)c(CC)c3cccc1n32 |
| 130 to 132 °C | O=C(O)CC[C@@H](Cc1cn(Cc2ccccc2)c2ccccc12)NC(=O)CCCCCCc1ccccc1 |
| 215 to 217 °C | CCCCC1=NSc2ccccc2N1Cc1ccc(-c2ccccc2C(=O)O)cc1 |
| 196 to 198 °C | O=C(Nc1cc(C(F)(F)F)cc(C(F)(F)F)c1)c1ccccc1O |
| 198 °C | COc1cccc(C2=C(C#N)C(c3cccc4nonc34)c3c[nH]nc3N2)c1 (stereo not given) |
| 191 to 192 °C | N#Cc1c(Nc2cccnc2)nn(Cc2ccccc2)c1N |
| 139 to 140 °C | CN(Cc1cc(C(F)(F)F)cc(C(F)(F)F)c1)C(=O)c1ncc2ccccc2c1-c1ccccc1 |
| 86 to 87.5 °C | O=C(O)[C@H]1CCCN1C(=O)CCCc1ccccc1 |
| 235 °C | COc1cc(C=C(C#N)C(=O)Nc2cccc(Cl)c2)cc(F)c1O |
| 180 °C | O=C1Nc2ccccc2SCC1c1ccc(Cl)cc1 (stereo not given) |
| 205 °C | CCCC1=NN(c2ccc(S(=O)(=O)O)cc2)C(=O)C1=CNc1ccccc1CC |
| 138 °C | Cc1ccc(S(=O)(=O)N2[C@@H](CCc3nnco3)CC[C@H]2c2ccc(F)cc2)cc1 (racemic) |
| 61 to 62 °C | CCOC(Cc1ccc(OCCN(C)c2nc3ccccc3o2)cc1)c1nc(C)no1 (stereo not given) |
